Columns and labels:
B16BL6 melanoma cells [1] = test: Tumor growth, paeonol in combination with 5-FU; assay type: in vivo; conditions: 5-FU 70 mg/kg i.p. at day 3 and 6; paeonol 1 mg per mouse oral twice a day for 21 days
Experimental: Synergy effect of paeonol in combination with anti-cancer drug, 5-fluorouracil (5-FU) was investigated. For the induction of primary tumor, B16BL6 melanoma cells (1×10^6) suspended in 0.2 ml of PBS were subcutaneously injected into C57BL6 female mice (SLC Co., Japan; 6 week-old, 20-25 g of body weight) adapted for 1 week. […] The size of tumor was measured once per 1-2 days for 21 days after injecting cancer cells and then the volume of tumor was calculated in accordance with the following equation, (width)^2×(length)×0.52.

B16BL6 melanoma cells [2] = test: Lifetime elongation, paeonol in combination with 5-FU; assay type: in vivo, mouse; conditions: after 22 days, n=7
Experimental: Effects of paeonol on lifetime elongation of tumor-induced mice were investigated.
(§1) For the induction of primary tumor, B16BL6 melanoma cells (1×10^6) suspended in 0.2 ml of PBS were subcutaneously injected into C57BL6 female mice (SLC Co., Japan; 6 week-old, 20-25 g of body weight) adapted for 1 week.
In 5-FU & paeonol treated group, 70 mg/kg per mouse of 5-FU was intraperitoneally injected at 3 day and 6 day after injecting cancer cells, and 1 mg per mouse of paeonol dissolved in 0.2 ml of 20% ethanol was orally administrated twice a day for 21 days after injecting cancer cells. In 5-FU treated group, 70 mg/kg per mouse of 5-FU was treated in the same manner as 5-FU & paeonol treated group. In the other hand, 0.2 ml of 20% ethanol was also orally administrated into control group and 5-FU treated group in the same manner as 5-FU & paeonol treated group.

angiogenesis = test: Mouse Matrigel model of angiogenesis (hemoglobin in Matrigel); assay type: in vivo; conditions: oral 0.5 mg per mouse twice a day (1 mg/day) for 4 days
Experimental: Effects of oral administration of paeonol on angiogenesis were quantitatively investigated in mouse Matrigel model. […] 0.5 mg of the above isolated paeonol was dissolved in 0.2 ml of 20% ethanol, and then 0.5 mg per mouse of paeonol (1 mg/day) was orally administrated into the treated group (n=8) twice a day for 4 days. In the other hand, 0.2 ml of 20% ethanol was also orally administrated into the control group (n=8) in the same manner as treated group. On the fifth day of oral administration, Matrigel was separated from excised skin of each mouse, and the level of hemoglobin in the Matrigel was measured in order to determine the inhibition of angiogenesis quantitatively.

B16BL6 melanoma cells [3] = test: Growth of solid tumor in B16BL6 melanoma-injected mice; assay type: in vivo, mouse; conditions: oral 1 mg per day for 17 days; compared with control group
Experimental: Effects of administering the present composition comprising paeonol on the growth of solid tumor were investigated. For the induction of primary tumor, B16BL6 melanoma cells (1×10^6) suspended in 0.2 ml of PBS ([…]) were subcutaneously injected into C57BL6 female mice (SLC Co., Japan; 6 week-old, 20-25 g of body weight) adapted for 1 week. 0.5 mg of the above isolated paeonol was dissolved in 0.2 ml of 20% ethanol, and then 0.5 mg per mouse of paeonol (1 mg/day) was orally administrated into the treated group (n=7) twice a day for 17 days after injecting cancer cells. In the other hand, 0.2 ml of 20% ethanol was also orally administrated into the control group (n=7) in the same manner as treated group. The size of tumor was measured once per 1-2 days for 17 days after injecting cancer cells and then the volume of tumor was calculated in accordance with the following equation, (width)^2×(length)×0.52.

B16BL6 melanoma cells [4] = test: Lifetime elongation of tumor-induced mice; assay type: in vivo, mouse; conditions: after 22 days; oral 1 mg/day; n=7
Experimental: Effects of the present composition comprising paeonol on lifetime elongation of tumor-induced mice were investigated.
as §1
0.5 mg of the above isolated paeonol was dissolved in 0.2 ml of 20% ethanol, and then 0.5 mg per mouse of paeonol (1 mg/day) was orally administrated into the treated group (n=7) twice a day for 22 days after injecting cancer cells. In the other hand, 0.2 ml of 20% ethanol was also orally administrated into the control group (n=7) in the same manner as treated group.

B16BL6 melanoma cells [5] = test: Tumor metastasis into lung after intravenous injection of melanoma cells; assay type: in vivo, mouse
Experimental: Inhibitory effects of the present composition comprising paeonol on tumor metastasis in tumor-induced mice were investigated. […] 0.25 mg of the above isolated paeonol was dissolved in 0.2 ml of 20% ethanol, and then 0.25 mg per mouse of paeonol (0.5 mg/day) was orally administrated into the treated group (n=6) twice a day for 14 days after injecting cancer cells. In the other hand, 0.2 ml of 20% ethanol was also orally administrated into the control group (n=6) in the same manner as treated group. After 14 days, mice were dissected, and then the numbers of colonies, which metastasized into lung, were counted.

[6] = tested on: human lung carcinoma cell line H460; test: Radiosensitization, clone formation of lung carcinoma cell line H460; assay type: cell-based
Experimental: […] At 7 day after irradiation, the clone formation (%) of each groups were measured and then the survival rates of each groups were compared with each other. Irradiation with high dose of radiation into cancer cell line prevents clone formation.

[7] = tested on: uterine carcinoma cell line HeLa; test: Radiosensitization, clone formation of uterine carcinoma cell line HeLa; assay type: cell-based, human
Experimental: […] At 7 day after irradiation, the clone formation (%) of each groups were measured and then the survival rates of each groups were compared with each other.

[8] = tested on: mouse lung carcinoma cell line, LLC (Lewis lung carcinoma); test: Radiosensitization in LLC-transplanted mice, tumor growth rate; assay type: in vivo; conditions: for tumor growth rate went down as compared with control group: 5 mg/kg oral
Experimental: Effect of treatment of paeonol during radiation into lung carcinoma cell line-transplanted animal on radiosensitization was investigated. 1×10^6 of mouse lung carcinoma cell line, LLC (Lewis lung carcinoma) cell were suspended in 0.2 ml of PBS, and then were injected into left leg of mouse in order to induce the tumor. LLC-transplanted mice were classified into 4 groups such as control group (n=10), irradiation-treated group (n=10), paeonol-treated group (n=10), and irradiation & paeonol-treated group (n=10). […] For control group and irradiation group, 20% ethanol was orally administered in the same manner as paeonol-treated group. […] The sizes (width, length) of tumor were measured for 30 days at an interval of 2 or 3 days, and then the volumes of tumor were calculated by the following equation, (width)^2×(length)×0.52. The tumor growth rates were also calculated by converting into the time which it takes for tumor volume to be 2000 mm^3.

[9] = tested on: mouse lung carcinoma cell line, LLC (Lewis lung carcinoma); test: Radiosensitization in LLC-transplanted mice, survival; assay type: in vivo; conditions: for survival of mice: 5 mg/kg oral
Experimental: Effect of treatment of paeonol during radiation into lung carcinoma cell line-transplanted animal on radiosensitization was investigated.
1×10^6 of mouse lung carcinoma cell line, LLC (Lewis lung carcinoma) cell were suspended in 0.2 ml of PBS, and then were injected into left leg of mouse in order to induce the tumor. LLC-transplanted mice were classified into 4 groups such as control group (n=10), irradiation-treated group (n=10), paeonol-treated group (n=10), and irradiation & paeonol-treated group (n=10).
After the volumes of tumor were about 100-200 mm^3 (6-7 day after LLC injection), 5 Gy of ^60Co radiation was irradiated to irradiation-treated group and irradiation & paeonol-treated group three times at an interval of 2 or 3 days.
After the existence of tumor was detected by touching with hand (4 day after LLC injection), 5 mg/kg of paeonol dissolved in 20% ethanol was orally administered into paeonol-treated group and irradiation & paeonol group once a day for 20 days. For control group and irradiation group, 20% ethanol was orally administered in the same manner as paeonol-treated group.
Enhancing effects of paeonol in combination with radiation on efficacy of radiotherapy was determined by comparing both tumor growth rates and mouse survival rates of 4 groups with each other groups.

B16BL6 melanoma cells [10] = test: Radiosensitization in melanoma-transplanted mice, tumor volume; assay type: in vivo, mouse; conditions: for decrease of tumor volume compared with control group: paeonol-treated group, no irradiation
Experimental: Effect of treatment of paeonol during radiation into melanoma-transplanted animal on radiosensitization was investigated. In order to induce primary tumor, B16BL6 melanoma cells (1×10^6) suspended in 0.2 ml of PBS was subcutaneously injected into C57BL6 female mice (SLC Co., Japan; 6 week-old […]) adapted for 1 week. Melanoma-transplanted mice were classified into 6 groups: control group (n=10), irradiation group (n=10), paeonol-treated groups (0.5 or 1 mg/kg per day) (n=10), and irradiation & paeonol-treated groups (0.5 or 1 mg/kg per day) (n=10), and then it was observed whether the combinational treatment of irradiation and paeonol enhances the radiosensitization of melanoma-transplanted animal. […] For control group and irradiation group, 20% ethanol was orally administered in the same manner as paeonol-treated group. The sizes (width, length) of tumor were measured for 30 days at an interval of 2 or 3 days, and then the volumes of tumor were calculated by the following equation, (width)^2×(length)×0.52.

[11] = tested on: normal human lung cell (BEAS-2B); test: Cytotoxicity test by MTT assay, normal lung cell; assay type: cell-based
Experimental: (§2) In order to examine the cytotoxicity of paeonol, 2×10^5 of normal human lung cell (BEAS-2B), human lung carcinoma cell (NCI-H460), human uterine carcinoma cell (HeLa) were treated with various concentrations (0.25, 0.5, 1, 2, 10 μg/ml) of paeonol for 24 hours, and then viabilities of each cells were measured by MTT assay.

[12] = tested on: human lung carcinoma cell (NCI-H460); test: Cytotoxicity test by MTT assay, lung carcinoma cell; assay type: cell-based
Experimental: as §2

[13] = tested on: human uterine carcinoma cell (HeLa); test: Cytotoxicity test by MTT assay, uterine carcinoma cell; assay type: cell-based
Experimental: as §2

[14] = Acute toxicity test in animal; assay type: in vivo; conditions: dosage of 100 mg/kg
[15] = Radiation 0 Gy, paeonol 1 μg/ml, 7 day
[16] = Radiation 0 Gy, paeonol 2 μg/ml, 7 day
[17] = Radiation 1 Gy, paeonol 2 μg/ml, 7 day after irradiation
[18] = Radiation 2 Gy, paeonol 1 μg/ml, 7 day after irradiation
[19] = Radiation 2 Gy, paeonol 2 μg/ml, 7 day after irradiation
[20] = Radiation 3 Gy, paeonol 1 μg/ml, 7 day after irradiation
[21] = Radiation 3 Gy, paeonol 2 μg/ml, 7 day after irradiation
[22] = 10 μg/ml of paeonol, 24 hours, MTT

SMILES: O=c1[nH]cc(F)c(=O)[nH]1 [Compound 5-FU, 5-fluorouracil]
- inhibition of tumor growth compared with control group (B16BL6 melanoma cells [1]): 50%
- survival rate (B16BL6 melanoma cells [2]; 5-FU 70 mg/kg i.p. at day 3 and 6, paeonol 1 mg per mouse oral twice a day): 14%
- number of mice survived (B16BL6 melanoma cells [2]): one

SMILES: COc1ccc(C(C)=O)c(O)c1 [paeonol]
- inhibition of angiogenesis (angiogenesis): about 67%
- hemoglobin content of treated group as compared with control group (angiogenesis; Matrigel with bFGF and heparin): 33%
- inhibition of tumor growth (B16BL6 melanoma cells [3]): 48%
- number of mice survived (B16BL6 melanoma cells [4]): three
- survival rate (B16BL6 melanoma cells [4]): 43%
- colonies metastasized into lung per mouse (B16BL6 melanoma cells [5]; oral 0.25 mg per mouse twice a day (0.5 mg/day) for 14 days, control 213±60): 132±80 colonies
- inhibition of metastasis into lung (B16BL6 melanoma cells [5]; oral 0.5 mg/day for 14 days): 38%
- decrease of clone formation compared with control group irradiated with 3 Gy ([6]; 1 μg/ml of paeonol): 16%
- decrease of clone formation compared with control group irradiated with 3 Gy ([6]; 2 μg/ml of paeonol): 31%
- Clone formation (%) [6, 15]: 100%
- Clone formation (%) [6, 16]: 100%
- Clone formation (%) [6, 17]: 71.1%
- Clone formation (%) ([6]; Radiation 1 Gy, paeonol 12 μg/ml, 7 day after irradiation): 72.5%
- Clone formation (%) [6, 18]: 46.4%
- Clone formation (%) [6, 19]: 43.3%
- Clone formation (%) [6, 20]: 25.8%
- Clone formation (%) [6, 21]: 21.2%
- decrease of clone formation compared with control group irradiated with 3 Gy ([7]; 1 μg/ml of paeonol): 23%
- decrease of clone formation compared with control group irradiated with 3 Gy ([7]; 2 μg/ml of paeonol): 39%
- Clone formation (%) [7, 15]: 100%
- Clone formation (%) [7, 16]: 100%
- Clone formation (%) ([7]; Radiation 1 Gy, paeonol 1 μg/ml, 7 day after irradiation): 73.4%
- Clone formation (%) [7, 17]: 72.8%
- Clone formation (%) [7, 18]: 45.5%
- Clone formation (%) [7, 19]: 44.7%
- Clone formation (%) [7, 20]: 12.3%
- Clone formation (%) [7, 21]: 10.9%
- tumor growth rate went down as compared with control group ([8]; irradiation & paeonol-treated group, 5 Gy three times): 1.4 fold
- Tumor growth rate (Time which it takes for tumor volume to be 2000 mm^3) ([8]; irradiation & paeonol-treated group: 5 Gy 60Co three times, paeonol 5 mg/kg oral once a day for 20 days, control 16, irradiation alone 19): 22 days
- Tumor growth rate (Time which it takes for tumor volume to be 2000 mm^3) ([8]; paeonol-treated group, 5 mg/kg oral once a day for 20 days, no irradiation, control 16): 19 days
- tumor growth rate went down as compared with control group ([8]; paeonol-treated group, no irradiation): 1.2 fold
- increase of survival rate compared with control group ([9]; irradiation & paeonol-treated group): about 2 times
- survival of mice ([9]; irradiation & paeonol-treated group, 5 Gy three times, control 42, irradiation alone 60): 78 days
- survival of mice ([9]; paeonol-treated group, no irradiation, control 42): 69 days
- decrease of tumor volume compared with control group, maximum (B16BL6 melanoma cells [10]; irradiation & paeonol-treated groups (0.5 or 1.0 mg/kg), 5 Gy at 4 and 6 day, irradiation alone 33.1%): ≤ 58.9%
- decrease of tumor volume compared with control group (B16BL6 melanoma cells [10]; 0.5 mg/kg oral once a day): 6.4%
- decrease of tumor volume compared with control group (B16BL6 melanoma cells [10]; 1.0 mg/kg oral once a day): 9.3%
- cytotoxicity [11, 22]: 6%
- LD50 ([11]; human): did not show enough toxicity to calculate LD50
- cytotoxicity [12, 22]: 18%
- LD50 ([12]; human): did not show enough toxicity to calculate LD50
- cytotoxicity [13, 22]: 15%
- LD50 ([13]; human): did not show enough toxicity to calculate LD50
- side effects during administration [14]: no side effects
